Literature values in patent publication US20080279948A1, “Treatment of Asthma and Copd Using Triple-Combination Therapy” (NXP B.V., priority 2005, published 2008).

Assays:
[1] = controlled release formulation for pulmonary delivery
[2] = aerosol formulation, single administration of a metered dose, asthma

## C[N+]1(C)CCC(OC(=O)C(O)(c2ccccc2)C2CCCC2)C1.[Br-] (racemic) [glycopyrrolate, 3-[(Cyclopentyl-hydroxyphenylacetyl)oxy]-1,1-dimethylpyrrolidinium bromide]
[1]
  period over which the antimuscarinic agent exerts its pharmacological effect: greater than 12 hours
[2]
  duration of bronchodilation: up to 12 hours
